Results: publication PMC6244159, “Structure and Function Studies of Asian Corn Borer Ostrinia furnacalis Pheromone Binding Protein2” (Scientific Reports, 2018)

Target: T1, OfurPBP2 (Ostrinia furnacalis pheromone binding protein 2) (Ostrinia furnacalis, UniProt E7CCA0)
T1 construct: gene PBP2; full-length OfurPBP2, recombinant soluble (E. coli Origami 2), delipidated, pH 6.5
T1 sequence (E7CCA0 23-166): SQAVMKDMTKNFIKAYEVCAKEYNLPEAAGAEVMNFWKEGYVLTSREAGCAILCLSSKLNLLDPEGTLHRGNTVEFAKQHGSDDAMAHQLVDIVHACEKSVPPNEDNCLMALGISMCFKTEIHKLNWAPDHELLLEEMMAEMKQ
Assay: fluorescence titration of the NPN probe (emission at […] nm), single-site fit

`c1ccc(Nc2cccc3ccccc23)cc1` [N-phenyl-1-naphthylamine] was tested. Which Kd did it give?
Its Kd is 6.49 ± 1.01 µM.
